Laboratory results taken from a melting point compilation (Tetko et al.; mined from patent text by program, amines drawn as free bases though some values may be those of a salt).

Structure (SMILES) | melting point
CCOC(=O)C1=C(C)NC(C)=C(C(=O)OCC)C1c1ncccc1O | 238 to 239 °C
O=C(/C=C/c1ccc2ccccc2c1)Nc1ccccc1-c1nnn[nH]1 | 187 to 191 °C
O=C1CC(O)CC(/C=C/c2cccc(Cl)c2Cl)O1 (stereo not drawn) | 122 to 123 °C
Oc1cc(-c2c3ccccc3c(Br)c3sc4ccccc4c23)ccc1Br | 111 to 112 °C
Cc1nnc2n1-c1ccc(C#CCn3cnc4ccccc43)cc1C(c1ccccc1Cl)=NC2 | 165 to 168 °C
COc1ccc2c(c1)C(c1ccc(N)cc1)=Nn1c(nc(C)c1C)C2 | 280 °C
CC(=O)Oc1ccc(C(F)(F)C(F)(F)C(F)(F)I)cc1 | 75 to 81 °C
CCCCCCCCCCn1c(C)cc(C)c(C(=O)O)c1=O | 67.5 to 72 °C
COCCCN(c1nc(Cl)nc(N(CCCOC)C2CC(C)(C)NC(C)(C)C2)n1)C1CC(C)(C)NC(C)(C)C1 | 160 to 161 °C
CCN(CC)C(=O)CCc1cc2ccccc2c(-c2ccccc2)n1 | 70 °C
CON=C(C)C(C)=NOc1ccccc1C(=NOC)C(=O)OC | 93 to 94 °C
Cc1ccc2c(c1)C=C(N1CCN(CCN3CCOC3=O)CC1)c1cc(Cl)ccc1S2 | 194 to 196 °C
CC(=O)N1CCN(C(=O)c2cc3ccnc(Cl)c3[nH]2)CC1 | 179 to 184 °C
CCC(C#N)C(Br)c1ccc(Br)cc1 (stereo not drawn) | 87 °C
O=C(Nc1ccc(Oc2cncc(Cl)c2)nc1)c1ccccc1C(c1ccc(O)cc1)c1ccc(O)cc1 | 122 to 125 °C
COC(=O)c1ccc(Cl)c(C2(O)C(=O)N(Cc3ccc(Cl)cc3OC)c3ccc(Cl)cc32)c1 (stereo not drawn) | 205 °C
CSc1sc(-c2ccccn2)c2c1-c1oncc1C(C)(C)C2 | 153 to 155 °C
OCc1ccc2ccccc2c1OCc1ccccc1 | 85 to 87 °C
CCc1cc(-n2cncn2)ncn1 | 75 to 76 °C
CCOC(=O)c1[nH]c(CC)nc1C(C)(C)O | 181 to 184 °C
CC[N+]1([O-])CCC(O)(c2cc(F)cc(Cl)c2)C1 (stereo not drawn) | 158 to 160 °C
CCOC=C(C(C)=O)C(=O)NCc1ccc(Cl)cc1 | 103 to 105 °C
Cc1cc(C)c2c(c1C)C(C(=O)O)=C(Cl)C2=O | 194 °C
CCc1nc(/C=C/c2cn(-c3ccccc3)nc2O)co1 | 157 to 159 °C
CCc1ccc2c(Cc3nc4c(F)c(F)cc(F)c4s3)cn(CC(=O)O)c2n1 | 155 to 157 °C

Structure (SMILES) | melting point
CCN1CCCC1CNC(=O)c1ccc2c(c1)C(=O)C1(CC1)O2 (stereo not drawn) | 161 to 166 °C
CSc1nn2c(N3CCN(C)CC3)ccnc2c1S(=O)(=O)c1ccccc1 | 107 to 109 °C
O=C(Nc1cccc(C(F)(F)F)c1F)c1ccccc1NCc1ccc(=O)[nH]c1 | 185 to 186 °C
O=c1cc(CBr)c2c(Cl)cc(Cl)cc2[nH]1 | 299 to 301 °C
COc1cc(-c2nc3ccc(OCCN4CCCCC4)cc3n2Cc2ccccc2Br)cc(OC)c1OC | 145 °C
CC(=O)OC(c1nccs1)(c1nccs1)C(F)(F)F | 82 to 84 °C
CC(=NO)c1csc(S(N)(=O)=O)c1 | 185 to 188 °C
Nc1cc(Cl)cc(Cl)c1C(=O)NCc1ccc(F)cc1 | 89 to 94 °C
COc1ccccc1C(=C/C=C/C(=O)Oc1ccc([N+](=O)[O-])cc1)c1ccccc1OC | 142 to 143 °C
O=C(CNc1c(C(=O)O)[nH]c2cc(Cl)cc(Cl)c12)c1cccc(F)c1 | 270 to 280 °C
CCCCCOC1=C(c2ccccc2)C(CCC(=O)O)OC1=O (stereo not drawn) | 86 to 87 °C
COc1ccccc1-n1c(C(S)c2ncnc3[nH]cnc23)nc2cccc(Cl)c2c1=O (stereo not drawn) | 237 °C
CCCc1ccc2c(c1)C(=O)N(c1ccc(C(C)C(=O)OC(C)(C)C)cc1)C2 (stereo not drawn) | 110 to 115 °C
Cc1c(Br)cccc1NCc1cc(C(C)(C)C)sc1C(=O)O | 150 to 152 °C
CS(=O)(=O)c1ccc(C(=O)c2c(O)cc(Cl)cc2Cl)c(Cl)c1 | 123 to 126 °C
CON1C(=O)CC2(CCN(C(=O)C3=CN(C)C=CC3)CC2)C1=O | 46 to 62 °C
Cc1cc(C(=O)N2Cc3ccccc3Cc3ccccc32)ccc1N | 203 to 204 °C
CCOC(=O)/C(=N\OCC(=O)N1CCCCC1)c1csc(N)n1 | 151 to 152 °C
CN(C)C(=O)NC1(Cc2ccccc2)CCN(Cc2ccccc2)CC1 | 131 °C
O=C(NS(=O)(=O)NCCCN1CCC(Oc2ccc(Cl)c(Cl)c2)CC1)c1ccccc1 | 93 to 106 °C
C#CCNc1ccc([N+](=O)[O-])cc1C | 121 to 123 °C
CN(C)c1nn(C(=O)NC(C)(C)CF)c(=O)n1NCc1cccc(Cl)c1 | 158 °C
NC(N)C(=O)c1ccccc1 | 104 to 107 °C
O=P(O)(O)C(Cc1cnsn1)P(=O)(O)O | > 300 °C
COc1ccc(-c2cc3ccc(Cl)cc3[nH]c2=O)cc1 | 256 to 257 °C

Structure (SMILES) | melting point
Cc1cnc2n(c1=O)C(C)CCC2=NNc1ccccc1 (stereo not drawn) | 165 to 166 °C
CC(C(=O)O)(c1ccccc1)N1CCC(c2noc3cc(F)ccc23)CC1 (stereo not drawn) | 194 to 200 °C
COc1ncccc1-c1ccc(OC2SCC(O)C(O)C2O)c(Cl)n1 (stereo not drawn) | 102 °C
CC1CC2=CC(=O)CCC2C2C(F)CC3(C)C(OCc4ccc(S(N)(=O)=O)cc4)CCC3C12 (stereo not drawn) | 232 °C
CC(C)OC(=S)SSCCSSC(=S)OC(C)C | 66 °C
CC(C)(C)c1ccc(CN2CCNC2=O)cc1 | 122 to 127 °C
N#Cc1ccc(C(=O)N2CCC[C@H]2C(=O)O)cc1 | 80 to 85 °C
COC(=O)c1ccc2nnc(C(=O)NCc3ccc(Cl)cc3)c(O)c2c1 | 308 to 310 °C
COCCN1CCc2ccc(OC)c(Nc3ncc(Cl)c(N[C@@H]4CCCC[C@H]4NS(C)(=O)=O)n3)c2CC1 | 93 to 100 °C
CSc1nn2c(Cl)cc(CN3CCN(C)CC3)nc2c1S(=O)(=O)c1ccccc1 | 113 to 116 °C
CC(=O)NCCSc1cc(N)c([N+](=O)[O-])cc1N | 162 °C
CC(=S)N(C)Cc1ccc(F)cc1 | 99 to 104 °C
O=[N+]([O-])c1ccc(OCC(O)COc2ccc([N+](=O)[O-])cc2)cc1 | 144 to 145 °C
O=C(c1ccc(-c2ccccc2)cc1)N1Cc2cccnc2Nc2ccccc21 | 175 to 177 °C
COc1cccc(C(=O)O)c1OCCN1CCC(c2cn(Cc3ccoc3)c3cnccc23)CC1 | 303 to 304 °C
NC(=O)c1nc(Cl)sc1Cl | 153 °C
CNc1cc(C(C)=O)ccc1OCCCN1CCC(c2noc3cc(F)ccc23)CC1 | 151 to 153 °C
CC(C)CN1C(=O)C(CC(=O)O)OC(C)(c2ccccc2Cl)c2cc(Cl)ccc21 (stereo not drawn) | 153 to 154 °C
N#CC(Nc1ccc2ccccc2c1)c1c(Cl)cccc1Cl (stereo not drawn) | 94.8 °C
Cc1cc(C2=NNC(C)(C#N)Cc3cc4c(cc32)OCO4)ccc1[N+](=O)[O-] (stereo not drawn) | 148 to 151 °C
COc1cc2c(cc1F)CCC2=O | 152 to 154 °C
Fc1cccc(N=C2SCCN2C(=S)Nc2cccc(F)c2)c1 | 108 to 109 °C
CC1(C)OCCN1CCNc1ccc(NCCN2CCOC2(C)C)c2c1C(=O)c1c(O)ccc(O)c1C2=O | 255 to 256 °C
